{
  "source": "ChEMBL document CHEMBL1177798",
  "about": "“Interaction of aminoadamantane derivatives with the influenza A virus M2 channel-docking using a pore blocking model” (Bioorg Med Chem Lett, 2010)",
  "target": "Matrix protein 2 (Influenza A virus, UniProt P06821)",
  "sequence (P06821 whole entry)": "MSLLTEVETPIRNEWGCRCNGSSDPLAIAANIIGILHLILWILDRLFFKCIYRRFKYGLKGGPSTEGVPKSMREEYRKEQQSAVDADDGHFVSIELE",
  "assay": "Binding affinity to Influenza A Weybridge(H7N7) virus Matrix protein 2 by spectrophotometry; call rule not given here",
  "set-up": "species or system Influenza A virus (A/chicken/FPV/Weybridge(H7N7))",
  "data": [
    {"compound": "NC1CCCC1", "note": "[CYCLOPENTANAMINE]", "values": [
      {"measurement": "Kd", "value": "Not Active"}
    ]}
  ]
}
